US9133235B2, “Macrocyclic antagonists of the motilin receptor for treatment of gastrointestinal dysmotility disorders” (Ocera Therapeutics, Inc., priority 2006, dated 2015)

What was measured:
[1] = molecular target: T1, CYP2B6 (Homo sapiens, UniProt P20813); assay: Cytochrome P450 inhibition, CYP2B6; type: in vitro ADME; conditions: Supersomes; read-out: IC50 (μM) 2B6
T1 construct: purchased BD Gentest, Becton-Dickinson (Supersomes); host or cells: insect cells (microsomes)
T1 sequence (P20813 1-491): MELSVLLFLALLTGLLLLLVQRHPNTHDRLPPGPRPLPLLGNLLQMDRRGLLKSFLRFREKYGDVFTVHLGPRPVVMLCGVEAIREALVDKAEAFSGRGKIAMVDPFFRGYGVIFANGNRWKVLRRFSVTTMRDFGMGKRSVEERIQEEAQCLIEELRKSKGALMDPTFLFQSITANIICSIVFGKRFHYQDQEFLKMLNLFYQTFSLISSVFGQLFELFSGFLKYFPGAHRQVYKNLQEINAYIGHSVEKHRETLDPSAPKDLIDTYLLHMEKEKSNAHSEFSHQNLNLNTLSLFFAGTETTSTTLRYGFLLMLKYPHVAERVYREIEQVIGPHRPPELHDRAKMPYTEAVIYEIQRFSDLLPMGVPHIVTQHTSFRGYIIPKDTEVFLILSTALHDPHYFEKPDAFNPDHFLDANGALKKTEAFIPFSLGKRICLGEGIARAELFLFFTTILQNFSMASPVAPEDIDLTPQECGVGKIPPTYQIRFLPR
Source text: F. Assay for Cytochrome P450 Inhibition
Cytochrome P450 enzymes are implicated in the phase I metabolism of drugs. The majority of drug-drug interactions are metabolism-based and, moreover, these interactions typically involve inhibition of cytochrome P450s. Six CYP450 enzymes (CYP1A2, CYP2C8, CYP2C9, CYP2C19, CYP2D6 and CYP3A4) appear to be commonly responsible for the metabolism of most drugs and the associated drug-drug interactions. Assays to determine the binding of compounds of the invention to the various metabolically important isoforms of cytochrome P450 metabolizing enzymes are commercially available, for example NoAb BioDiscoveries (Mississaugua, ON, Canada) and Absorption Systems (Exton, Pa., USA). As well, a number of appropriate methods have been described or reviewed in the literature. (White, R. E. Ann. Rev. Pharmacol. Toxicol. 2000, 40, 133-157; Li, A. P. Drug. Disc. Today 2001, 6, 357-366; Turpeinen, M.; Korhonen, L. E. Tolonen, A.; et al. Eur. J. Pharm. Sci. 2006, 29, 130-138.)
The concentration of the inhibitor or test compound that inhibited metabolite formation by 50% (IC50) was calculated by non-linear regression analysis of the % inhibition vs. log concentration (M) curve.

[2] = system: irinotecan-induced CID in dogs; assay: Dog model of chemotherapy-induced diarrhea; type: in vivo; conditions: FIG. 19
Source text: The objective of this study was to determine the efficacy of representative macrocyclic compounds of the present invention in chemotherapy-induced diarrhea (CID) following intravenous administration to the male beagle dog (Canis familiaris) for up to 32 days. Comparison with existing agents utilized for this condition, octreotide and loperamide, was an additional objective.
Twenty-one (21) male naïve Beagle dogs were randomly assigned to 7 groups and treated as follows:
The test compounds, controls and comparators were prepared at appropriate intervals. All formulations intended for administration to the test animals were stored refrigerated at 2-8° C. Irinotecan was obtained as a sterile solution for intravenous injection containing irinotecan hydrochloride trihydrate at a concentration of 20 mg/mL, ready to use. The irinotecan formulation for dosing the animals (0.5 mg/mL) in Group 1 (Cycles 1 and 2 only) was achieved by dilution of 20 mg/mL formulation with 5% dextrose for injection, USP. […]
A total of 21 males and 2 spare males were obtained from a commercial supplier (for example Marshall BioResources, North Rose, N.Y.) with ages 5 to 7 months old at onset of treatment and weights 6-9 kg at onset of treatment. […] Temperature and relative humidity were monitored continuously and recorded 4 times daily. […]

IC50 [1] [µM]	SMILES	efficacy in the treatment of irinotecan-induced CID ([2]; intravenous infusion, versus the current standard of care (octreotide, loperamide))	onset and duration of action in irinotecan-induced CID ([2]; versus the current standard of care)
> 100	CCC[C@@H]1NC(=O)[C@@H](C(C)C)NC(=O)[C@@H](Cc2cccc(F)c2)N[C@@H](C)COc2ccccc2CCCNC1=O [Compound 551]		
	CCC[C@@H]1NC(=O)[C@@H](C(C)C)NC(=O)[C@@H](Cc2ccc(O)c(Cl)c2)N[C@@H](C)COc2ccccc2CCCNC1=O [Compound 552]	superior efficacy	quicker onset and longer duration of action
> 100	CCC[C@@H]1NC(=O)[C@@H](C(C)C)NC(=O)[C@@H](Cc2ccc(O)c(C(C)(C)C)c2)NCCOc2ccccc2CCCNC1=O [Compound 553]		
